{
  "source": "patent US20230201382A1",
  "about": "“RADIOLIGANDS FOR MYELIN” (CASE WESTERN RESERVE UNIVERSITY, priority 2016, published 2023)",
  "key": {"myelin [1]": {"system": "myelin", "test": "In vitro detection of focal demyelination, LPC rat model", "assay_type": "binding", "settings": "LPC-induced focal demyelination, rat brain sections", "description": "Sprague-Dawley female rats (220-250 g, 8 weeks old) were anesthetized and positioned in a stereotaxic frame (Stoelting). A small incision was made in the scalp, and the corpus callosum was targeted using the following stereotaxic coordinates, relative to bregma: anterior-posterior, 0.0 mm; medial-lateral, 2.0 mm; and dorsal-ventral, 3.4 mm. A small hole was drilled in the skull, and a 26S-gauge needle attached to a 10 μL Hamilton Syringe was lowered into the corpus callosum according to the dorsal-ventral coordinate. A microinjector pump (Stoelting) controlled the infusion of 6 μL of lysolecithin (LPC, 0.1% in saline) at a rate of 0.25 μL/min, after which the needle was left in place for 2 min in order to prevent liquid reflux out of the brain parenchyma. The incision was then closed using 5-0 Ethicon sutures, and the animals were allowed to recover on a heating pad. After 5-7 days, the animals were ready for study.\nFive days after surgery, the rats were anesthetized and perfused with saline followed by 4% PFA. […] Sections were then examined under a microscope (Leica DM4000B, Leica Microsystem Inc., Buffalo Grove, Ill., USA) equipped for fluorescence (DFC7000T), and images of the stained mouse whole brain sections were acquired with the same exposure time. […]"}, "myelin [2]": {"system": "myelin", "test": "In situ staining after tail vein injection (Example 2)", "assay_type": "in vivo, mouse", "settings": "1.0 mg (50 mg/kg) tail vein, WT mice, 1 h", "description": "Wild-type mice were administered the newly synthesized compounds (40 mg/kg) via tail vein injection, and 30-60 min later the mice were perfused transcardially with saline followed by 4% PFA in PBS. Brains and spinal cords were then removed, postfixed by immersion in 4% PFA overnight, dehydrated in 30% sucrose solution, cryostat sectioned at 100 μm, mounted on superfrost slides, and images were acquired directly using a Leica fluorescent microscope.\nFollowing the in vitro studies, we then investigated the ability of compound 21 to readily enter the brain and bind to myelin in situ. A dose of 1.0 mg of compound 21 (50 mg/kg) was administered via the tail vein to wild-type (WT) mice. One hour after injection, the mice were perfused with saline followed by 4% paraformaldehyde (PFA) and the brain and spinal cord were removed and sectioned. The distribution of compound 21 was then directly examined under a fluorescent microscope."}, "myelin [3]": {"system": "myelin", "test": "In vitro tissue staining and fluorescent intensity ratio, mouse brain sections (Example 1)", "assay_type": "binding", "settings": "1 mM staining solution, 25 min", "description": "Wild-type mice (20-22 g, 8 weeks old) were deeply anesthetized and perfused transcardially with precooled saline (4° C., 10 mL/min for 1 min followed by 7 mL/min for 6 min) followed by fixation with precooled 4% PFA in PBS (4° C., 10 mL/min for 1 min followed by 7 mL/min for 6 min). Brain tissues were then removed, postfixed by immersion in 4% PFA overnight, dehydrated in 10%, 20%, and 30% sucrose solution, embedded in a freezing compound (OCT, Fisher Scientific, Suwanee, Ga.), and sectioned at […] with a cryostat (Thermo HM525, Thermo Fisher Scientific Inc., Chicago, Ill., USA). […] Sections were then examined under a microscope (Leica DM4000B, Leica Microsystem Inc., Buffalo Grove, Ill., USA) equipped for fluorescence (DFC7000T), and images of the stained mouse whole brain sections were acquired with the same exposure time. ImageJ software was then used to quantify pixel intensity values on 6 sections of each tested compound. […] Images were analyzed by two experienced individuals. The FIR of white matter to gray matter were then calculated.\nIn vitro Staining and Assay of the Fluorescent Intensity. […] Next, we selected a representative region in the genus of the corpus callosum (gcc) and a representative region in the subcortical gray matter (cortex) and calculated the fluorescent intensity ratio (FIR) between both regions (FIG. 2A). […]"}, "myelin [4]": {"system": "myelin", "test": "Quantitative microPET/CT imaging in WT rats (Example 2)", "assay_type": "in vivo, rat", "description": "(§1) For better anatomic localization, CT coregistration was applied.\nFollowing radiosynthesis, the pharmacokinetic profile of [^18F]21 was fully characterized by quantitative microPET/CT imaging in WT rats (n=3). […] The brain radioactivity peaked at 3 min postinjection followed by rapid clearance before reaching a plateau at 40-60 min postinjection."}, "myelin [5]": {"system": "myelin", "test": "In situ autoradiography of mouse brain (Example 2)", "assay_type": "in vivo", "settings": "mouse brain coronal sections", "description": "Wild-type mice were euthanized at 30 min post iv injection of [^18F]21 (111 MBq, 3.0 mCi). The brains were rapidly removed, placed in OCT embedding medium, and frozen at −20° C. After reaching equilibrium at this temperature, the brains were coronally sectioned at 60 μm on a cryostat and mounted on superfrost slides. After drying by air at room temperature, the slides were put in a cassette and exposed for 20 min to film to obtain images.\nTo validate the PET results and confirm that the PET signals were indeed from specific binding to myelin, we conducted ex vivo autoradiography in the mouse brain following administration of [^18F]21 through tail vein injections. After 1 h, the mouse brain was dissected for coronal tissue sectioning. […] Thus, combination of in situ autoradiography and PET imaging confirmed that [^18F]21 binds specifically to myelin in vivo."}, "myelin [6]": {"system": "myelin", "test": "Quantitative microPET/CT imaging in Shiverer and WT mice", "assay_type": "in vivo, mouse", "settings": "SUVs from 40 to 60 min", "description": "as §1\nTo further evaluate the in vivo binding specificity of [^18F]21, we investigated the pharmacokinetic profiles of [^18F] 21 in a Shiverer mouse model that is deficient in myelin in the brain. Thus, the pharmacokinetic profiles of [^18F]21 were quantitatively compared between Shiverer mice (C3Fe.SWV-Mbpshi/J, n=2) and age-matched WT mice (CB57J, n=2).\nDynamic emission scans were acquired for 60 min in 3D list mode immediately after [^18F]21 (0.3 mCi each mouse, 11.1 MBq) was administered. The brain uptake of [^18F]21 was lower in the Shiverer brain than in the WT littermates (1.25 vs 1.64). After the brain concentration of [^18F]21 reached a plateau, the SUVs from 40 to 60 min were summarized and compared."}, "myelin [7]": {"system": "myelin", "test": "Quantitative microPET/CT imaging of spinal cord, rat SCI model", "assay_type": "in vivo", "description": "Sprague-Dawley female rats (220-250 g, 8 weeks old) were anesthetized and a restricted laminectomy was conducted to expose the dorsal surface of T13. The vertebral column between T12 and L1 was then stabilized with clamps and forceps fixed to the base of an Infinite Horizon impact device. The midpoint of T13 was impacted with a force of 250 kDyn using a 2.5 mm stainless steel impactor tip, which was used to induce a moderately severe contusive injury to the spinal cord. The musculature was then sutured over the laminectomy site and the skin closed with wound clips followed by subsequent treatment with Marcaine at the incision site. The force/displacement graph was used to monitor impact consistency. After surgery, the animals were carefully monitored daily for pain and body weight with manual bladder expression 2-3 times daily to stimulate reflex voiding until the animals could urinate independently.\nas §1\nSo far, imaging of the spinal cord remains a great challenge. […] Next, we asked whether [18F]21 PET is capable of in vivo imaging of myelin deficiency or myelin damage in living animal models. We conducted [^18F]21-PET imaging in a rat model of thoracic contusive SCI. In this model, the contusion was made at T13 to introduce demyelination. In vivo [^18F]21 PET imaging was performed before (as a baseline scan) and 1 day after contusion. The uptake of [^18F]21 in every spine segment was then normalized to the average spine uptake. […] After microPET/CT imaging, we conducted in situ histological staining of the spinal cord 60 min after injection of nonlabeled compound 21 through the tail vein."}},
  "data": [
    {"smiles": "CNc1ccc(/C=C/c2ccc(NCc3cn(CCF)nn3)cc2)cc1", "note": "[Compound 21, (E)-N-((1-(2-Fluoroethyl)-1H-1,2,3-triazol-4-yl)methyl)-4-(4-(methylamino)styryl)aniline]", "values": [
      {"measurement": "detection of demyelinated lesion by fluorescent staining", "setting": "myelin [1]", "value": "capable of detecting the demyelinated focal lesion by fluorescent staining"},
      {"measurement": "brain and spinal cord entry and myelin binding in situ", "setting": "myelin [2]", "value": "readily entered the brain and spinal cord and localized in all the myelinated regions in proportion to the myelin content"},
      {"measurement": "brain and spinal cord entry and myelin binding in situ", "setting": "myelin [2]; listed as TAFDAS", "value": "readily penetrates the BBB and binds to myelin membranes in the brain and spinal cord"}
    ]},
    {"smiles": "CNc1ccc(/C=C/c2ccc(N)c(OCCF)c2)cc1", "note": "[Compound 32, (E)-4-(4-Amino-3-(2-fluoroethoxy)styryl)-N-methylaniline]", "values": [
      {"measurement": "fluorescent intensity ratio (FIR) white matter (gcc) vs gray matter (cortex)", "setting": "myelin [3]", "value": "> 2"}
    ]},
    {"smiles": "CC(C)Nc1ccc(/C=C/c2ccc(N)c(OCCF)c2)cc1", "note": "[Compound 35, (E)-4-(4-Amino-3-(2-fluoroethoxy)styryl)-N-isopropylaniline]", "values": [
      {"measurement": "fluorescent intensity ratio (FIR) white matter (gcc) vs gray matter (cortex)", "setting": "myelin [3]", "value": "> 2"}
    ]},
    {"smiles": "CNc1ccc(/C=C/c2ccc(NCc3cn(CC[18F])nn3)cc2)cc1", "note": "[[^18F]21]", "values": [
      {"measurement": "uptake in the brain", "setting": "myelin [4]", "value": "high uptake in the brain"},
      {"measurement": "time of peak brain radioactivity", "setting": "myelin [4]; postinjection", "value": 3, "unit": "min"},
      {"measurement": "labeling in ex vivo autoradiography", "setting": "myelin [5]", "value": "distinctly labeled the corpus callosum"},
      {"measurement": "uptake at 40-60 min, Shiverer vs control", "setting": "myelin [6]", "value": "significantly decreased compared to the control mouse brain"},
      {"measurement": "uptake at L1 normalized to average spine uptake", "setting": "myelin [7]; 1 day post-T13 contusion", "value": 1.08},
      {"measurement": "uptake at T12 normalized to average spine uptake", "setting": "myelin [7]; 1 day post-T13 contusion", "value": 0.99},
      {"measurement": "uptake at T13 normalized to average spine uptake", "setting": "myelin [7]; 1 day post-T13 contusion (SCI group)", "value": 0.81},
      {"measurement": "uptake at L1 normalized to average spine uptake", "setting": "myelin [7]; before contusion (baseline)", "value": 1.05},
      {"measurement": "uptake at T12 normalized to average spine uptake", "setting": "myelin [7]; before contusion (baseline)", "value": 0.99},
      {"measurement": "uptake at T13 normalized to average spine uptake", "setting": "myelin [7]; before contusion (baseline)", "value": 1.02}
    ]}
  ]
}
